Reference: paper PMC10178785 (ACS Chemical Biology, 2023)
Like-named read-outs stand apart in the source and are kept apart here.

Experiments:
[1] = target: T1, MacroD1 (Homo sapiens, UniProt Q9BQ69); conditions: cited from earlier work
[2] = target: T2, VEEV Macro (Venezuelan equine encephalitis virus, UniProt P27282); assay: biochemical; type: binding
[3] = target: T1, MacroD1; assay: biochemical; type: binding
[4] = target: T3, SARS-CoV-2 Macro1 (Severe acute respiratory syndrome coronavirus 2, UniProt P0DTD1); assay: biochemical; type: binding
[5] = target: T4, CHIKV Macro (Chikungunya virus, UniProt Q8JUX6); assay: biochemical; type: binding
T4 sequence (Q8JUX6 1334-1493 limits assumed): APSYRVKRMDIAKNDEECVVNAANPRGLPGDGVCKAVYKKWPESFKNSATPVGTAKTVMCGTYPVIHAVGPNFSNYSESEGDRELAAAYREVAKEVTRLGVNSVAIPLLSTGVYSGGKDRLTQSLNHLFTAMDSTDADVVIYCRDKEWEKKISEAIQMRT

[6] = target: PARP9 Macro2 (Homo sapiens, UniProt Q8IXQ6); assay: biochemical; type: binding
[7] = target: T5, human MacroD2 (Homo sapiens, UniProt A1Z1Q3); assay: biochemical; type: binding
T5 sequence (A1Z1Q3 59-240 limits assumed): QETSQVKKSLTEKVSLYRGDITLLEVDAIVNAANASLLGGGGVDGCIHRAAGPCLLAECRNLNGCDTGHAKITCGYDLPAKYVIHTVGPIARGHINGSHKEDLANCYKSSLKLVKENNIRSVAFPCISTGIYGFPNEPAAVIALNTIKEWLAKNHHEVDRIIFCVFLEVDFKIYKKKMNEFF

[8] = target: T1, MacroD1; type: binding
[9] = target: T4, CHIKV Macro; type: binding
[10] = target: T3, SARS-CoV-2 Macro1; type: binding
[11] = target: T2, VEEV Macro; type: binding
[12] = target: T5, human MacroD2; type: binding
[13] = target: T1, MacroD1; type: biochemical
[14] = target: SARS Macro1 (Severe acute respiratory syndrome coronavirus 2, UniProt P0DTD1); type: biochemical, SARS-CoV-2

T2 sequence (P27282 1330-1489 limits assumed): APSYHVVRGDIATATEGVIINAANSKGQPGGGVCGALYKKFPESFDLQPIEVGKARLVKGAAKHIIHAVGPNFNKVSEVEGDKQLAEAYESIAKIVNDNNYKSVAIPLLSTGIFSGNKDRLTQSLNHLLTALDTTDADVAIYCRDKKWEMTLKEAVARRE
T1 sequence (Q9BQ69 141-322 limits assumed): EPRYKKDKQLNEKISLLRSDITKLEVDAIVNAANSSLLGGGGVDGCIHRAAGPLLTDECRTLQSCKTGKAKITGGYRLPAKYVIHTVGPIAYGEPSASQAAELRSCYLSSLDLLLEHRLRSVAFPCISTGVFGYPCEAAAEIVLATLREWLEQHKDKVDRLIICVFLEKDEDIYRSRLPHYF

Compound	IC50 [4]	IC50 Fold Decrease Relative to ADPr: SARS Macro1 [4]	IC50 [5]	IC50 [2]	IC50 [6]	IC50 [3]	IC50 [7]	further results
Nc1ncnc2c1ncn2[C@@H]1O[C@H](COP(=O)(O)OP(=O)(O)OC[C@H]2OC(O)[C@H](O)[C@@H]2O)[C@@H](O)[C@H]1O (stereo partly drawn) [ADPr, adenine diphosphate ribose]	–	–	–	–	–	–	–	Kd [1]: 0.72 µM; IC50 ([2]; read-out: IC50 VEEV Macro): 18.3 ± 2.8 µM; IC50 ([3]; read-out: IC50 MacroD1): 1.42 ± 0.22 µM
[N-]=[N+]=NC1OC(COP(=O)(O)OP(=O)(O)OCC2OC(n3cnc4c(N)ncnc43)C(O)C2O)C(O)C1O (stereo not drawn) [ADPr-N3]	7.23 ± 0.94 µM	~2 fold	–	–	–	–	–	–
N#C[C@@]1(c2ccc3c(N)ncnn23)O[C@H](CO)[C@@H](O)[C@H]1O [GS-441524]	–	–	> 100 µM	> 100 µM	> 100 µM	> 100 µM	> 100 µM	–
CN(C)c1ccc2c(c1)Oc1cc(N(C)C)ccc1C21OC(=O)c2cc(C(=O)NCCCCCCNC(=O)CCc3cn([C@H]4O[C@H](COP(=O)(O)OP(=O)(O)OC[C@H]5O[C@@H](n6cnc7c(N)ncnc76)[C@H](O)[C@@H]5O)[C@@H](O)[C@H]4O)nn3)ccc21 [TAMRA-ADPr]	–	–	–	–	–	–	–	mP shift [8]: more than 100 mP; mP shift [9]: ~70 mP; mP shift [10]: over 110 mP; mP shift [11]: ~70 mP; mP shift [12]: more than 100 mP
Nc1ncnc2c1ncn2[C@@H]1O[C@H](COP(=O)(O)OP(=O)(O)OC[C@H]2O[C@H](Oc3ccc4c(C(F)(F)F)cc(=O)oc4c3)[C@H](O)[C@@H]2O)[C@@H](O)[C@H]1O [TFMU-ADPr, ADP-ribosylated trifluoromethyl umbelliferone]	0.59 µM	25 fold	37.6 ± 12.3 µM	4.24 ± 0.36 µM	10.9 ± 1.1 µM	0.29 ± 0.02 µM	0.09 ± 0.02 µM	MAR hydrolysis activity of MacroD1 in the presence of inhibitor [13]: lowered MAR hydrolysis activity; MAR hydrolysis activity of SARS Macro1 in the presence of inhibitor [14]: lowered MAR hydrolysis activity
Nc1ncnc2c1ncn2[C@@H]1O[C@H](COP(=O)(O)O)[C@@H](O)[C@H]1O[C@@H]1O[C@H](COP(=O)(O)O)[C@@H](O)[C@H]1O [iso-ADPr]	–	–	–	–	–	–	–	Competition with the tracer in macrodomain binding [5]: did not compete; Competition with the tracer in macrodomain binding [2]: did not compete; Competition with the tracer in macrodomain binding [4]: did not compete; Competition with the tracer in macrodomain binding [6]: did not compete; Competition with the tracer in macrodomain binding [3]: did not compete; Competition with the tracer in macrodomain binding [7]: did not compete
Nc1ncnc2c1ncn2[C@@H]1O[C@H](COP(=O)(O)OP(=O)(O)OC[C@H]2O[C@H](Oc3ccc([N+](=O)[O-])cc3)[C@H](O)[C@@H]2O)[C@@H](O)[C@H]1O [pNP-ADPr, ADP-ribosylated p-nitrophenol]	0.37 µM	40 fold	22.8 ± 5.7 µM	10.7 ± 0.9 µM	4.5 ± 0.4 µM	0.96 ± 0.07 µM	0.15 ± 0.01 µM	MAR hydrolysis activity of MacroD1 in the presence of inhibitor [13]: lowered MAR hydrolysis activity; MAR hydrolysis activity of SARS Macro1 in the presence of inhibitor [14]: lowered MAR hydrolysis activity
